{"source": "paper PMC5063576", "about": "“High Potency VEGFRs/MET/FMS Triple Blockade by TAS-115 Concomitantly Suppresses Tumor Progression and Bone Destruction in Tumor-Induced Bone Disease Model with Lung Carcinoma Cells” (PLoS ONE, 2016)", "key": {"[1]": {"test_system": "FMS, ERK1/2 and AKT phosphorylation in MDBMs", "assay": "In vitro MDBM signaling, M-CSF-stimulated FMS phosphorylation", "assay_type": "cell-based, mouse", "settings": "1 hr incubation, Western blotting", "description": "(§1) For analysis of the expression and phosphorylation levels of FMS, MET and VEGFR2, MDBMs were cultured with hM-CSF (20000 U/mL) for 4 days (400000 cells/dish in Suspension Culture Dishes (Corning Inc., NY). The phosphorylation levels of FMS and downstream signaling molecules were then analyzed in these MDBMs following incubation for 1 hr with test compounds at the indicated concentration. The phosphorylation of MET or VEGFR2 was analyzed in these MDBMs following stimulation with rhHGF (100 ng/mL, 10 min) or rhVEGF (100 ng/mL, 5 min), respectively. After incubation, the MDBMs were harvested, the cells were lysed and target signaling proteins were detected by immunoblotting. For analysis of VEGFR2 and its phosphorylated form, the lysate was immunoprecipiated with an anti-VEGFR antibody prior to immunoblotting."}, "[2]": {"test_system": "A549-Luc-BM1 cells", "assay": "Proliferation of A549-Luc-BM1 cells (CellTiter-Glo)", "assay_type": "cell-based", "settings": "Homo sapiens, 72 hr post drug addition, read-out: 50% growth inhibitory concentration (GI50) for A549-Luc-BM1 cells", "description": "Supplementary file pone.0164830.s002.tif: S2 Fig The effect of TAS-115 on the proliferation of A549-Luc-BM1 cells. A549-Luc-BM1 cells were seeded on 96 well plates at a density of 10^3 cells/well in RPMI1640 containing 10% FBS. […] At 72 hr post drug addition, cell viability was determined using CellTiter-Glo^TM. The 50% growth inhibition (GI50) values were determined using SAS version 9.2. (TIF) Click here for additional data file."}, "[3]": {"assay": "Body weight change in the bone disease model", "assay_type": "in vivo, BALB/c nude mice", "settings": "4 weeks of treatment; TAS-115 200 mg/kg, crizotinib 100 mg/kg, sunitinib 40 mg/kg with crizotinib 100 mg/kg, oral once daily", "description": "Changes in body weight (BW) during the dosing period were determined using body weight change (BWC; %) as an indicator, which was calculated using the following formula: BWC; % = 100 × ((BW on each measurement day)–(BWday 0)) / (BWday 0). BWday 0 is the BW on the allocation day. The schedule for the in vivo study is depicted in the Supporting Information (S1 Fig)."}, "[4]": {"test_system": "A549-Luc-BM1-implanted tibia", "assay": "Bone morphometrical analyses by micro-CT", "assay_type": "in vivo, BALB/c nude mice", "settings": "micro-CT after 4 weeks dosing; TAS-115 200, cabozantinib 15, sunitinib 40, crizotinib 100 mg/kg oral; vs control", "description": "On day 29, the mice were euthanized by cervical dislocation under isoflurane anesthesia, and subsequently the A549-Luc-BM1-implanted tibia was removed and was fixed in 4% paraformaldehyde solution. Micro-CT imaging was performed by using Rm_CT2 (Rigaku corporation, Tokyo, Japan) with the following parameters: 90 kV, 160 μA, 3 min exposure, 10 mm field of view (20 μm voxel size). After scanning, 3D reconstruction was performed to produce a series of cross-sectional images by using specific software (3D Viewer Version 3.00.01, Rigaku corporation). In addition, bone mineral density (BMD) and 3D morphometrical primary parameters, including total volume (TV) and bone volume (BV), were calculated by using bone microstructure software (TRI/3D-BON-FCS64, Ratoc System Engineering, Tokyo, Japan). Volumetric BMD (vBMD), which has been reported to be a good index of osteoporosis, was calculated from primary parameters using the following formula: vBMD = BMD × BV / TV."}, "[5]": {"test_system": "TRAP-positive osteoclasts at tumor-bone boundary", "assay": "TRAP staining of A549-Luc-BM1-implanted tibiae, osteoclast number", "assay_type": "in vivo, BALB/c nude mice", "settings": "2 weeks oral; TAS-115 200, cabozantinib 15, sunitinib 40, crizotinib 100 mg/kg, combination; vs control", "description": "On day 15, the mice were euthanized by cervical dislocation under isoflurane anesthesia, and their tibiae were collected. For CD31 staining, frozen sections (3 μm thick) were prepared using Kawamoto’s film method. Purified Rat Anti-Mouse CD31 (1:100, BD Pharmingen^TM) was detected using Simple Stain^TM Mouse MAX PO (Rat) (Nichirei) and 3,3’-diaminobenzidine (Dako, Glostrup, Denmark). For Ki-67 and TRAP staining, formalin-fixed paraffin-embedded sections (2 μm thick) were prepared. Anti-human Ki-67 Rabbit Monoclonal Antibody (1:50, Epitomics) was detected using the EnVisionTM^+ System (Dako). TRAP staining was performed using the TRAP/ALP Stain Kit (Wako Pure chemical Industries, Ltd.). To quantify each staining, whole slides were scanned under 20× magnification with the Aperio Scan-Scope XT Slide Scanner (Aperio Technologies, Inc., CA). To quantify CD31-positive microvessels as microvessel density (MVD, number/mm^2), four fields of tumor area per section excluding bone and necrotic tissue were analyzed by using Image-Pro Plus (Media Cybernetics, Inc., Carlsbad, CA). […] Ki-67-positive cells and total tumor cells were counted by using Image-Pro Plus. The Ki-67 index is expressed as a percentage (the number of Ki-67-positive tumor cells / the total number of the tumor cells × 100). […] The boundary length was calculated by Image-Pro Plus. […]"}, "[6]": {"test_system": "MET phosphorylation in MDBMs", "assay": "In vitro MDBM signaling, rhHGF-induced MET phosphorylation", "assay_type": "cell-based, mouse", "settings": "rhHGF 100 ng/mL 10 min, Western blotting", "description": "as §1"}, "[7]": {"test_system": "A549-Luc-BM1-implanted tibiae", "assay": "CD31 staining, microvessel density in bone lesion", "assay_type": "in vivo, BALB/c nude mice", "settings": "2 weeks oral; TAS-115 100 mg/kg, cabozantinib 15, crizotinib 100, sunitinib 40 mg/kg; vs control", "description": "On day 15, the mice were euthanized by cervical dislocation under isoflurane anesthesia, and their tibiae were collected. For CD31 staining, frozen sections (3 μm thick) were prepared using Kawamoto’s film method. Purified Rat Anti-Mouse CD31 (1:100, BD Pharmingen^TM) was detected using Simple Stain^TM Mouse MAX PO (Rat) (Nichirei) and 3,3’-diaminobenzidine (Dako, Glostrup, Denmark). For Ki-67 and TRAP staining, formalin-fixed paraffin-embedded sections (2 μm thick) were prepared. Anti-human Ki-67 Rabbit Monoclonal Antibody (1:50, Epitomics) was detected using the EnVisionTM^+ System (Dako). TRAP staining was performed using the TRAP/ALP Stain Kit (Wako Pure chemical Industries, Ltd.). To quantify each staining, whole slides were scanned under 20× magnification with the Aperio Scan-Scope XT Slide Scanner (Aperio Technologies, Inc., CA). To quantify CD31-positive microvessels as microvessel density (MVD, number/mm^2), four fields of tumor area per section excluding bone and necrotic tissue were analyzed by using Image-Pro Plus (Media Cybernetics, Inc., Carlsbad, CA). The mean values of the four areas were considered as the MVD of each animal. […] Ki-67-positive cells and total tumor cells were counted by using Image-Pro Plus. The Ki-67 index is expressed as a percentage (the number of Ki-67-positive tumor cells / the total number of the tumor cells × 100). The numbers of TRAP-positive osteoclasts were counted, and are expressed as the TRAP-positive osteoclast labeling index, (the number of TRAP-positive cells / the length of the boundary between tumor and trabecular bone (number/mm)). Cells that were TRAP-positive, had more than one nucleus, and were found on the surface of the bone, were identified as osteoclasts. The boundary length was calculated by Image-Pro Plus. All histopathological analyses were conducted in a blinded manner."}}}
{"smiles": "CNC(=O)c1cc2c(Oc3ccc(NC(=S)NC(=O)Cc4ccccc4)cc3F)ccnc2cc1OC", "note": "[TAS-115, 4-[2-fluoro-4-[[[(2-phenylacetyl)amino]thioxomethyl]amino]-phenoxy] -7-methoxy-N-methyl-6-quinolinecarboxamide]", "values": [{"measurement": "concentration markedly inhibiting M-CSF-stimulated phosphorylation of FMS, ERK1/2 and AKT", "setting": "[1]", "result": "greater than 0.03 μM"}, {"measurement": "GI50", "setting": "[2]", "result": 11.2, "unit": "µM"}, {"measurement": "effect on body weight", "setting": "[3]", "result": "did not cause body weight loss"}, {"measurement": "A549-Luc-BM1-induced changes in bone parameters (BV, TV, BMD, vBMD)", "setting": "[4]", "result": "significantly suppressed all of the changes"}, {"measurement": "number of TRAP-positive osteoclasts at tumor-bone boundary", "setting": "[5]", "result": "significantly decreased"}, {"measurement": "concentration inhibiting the phosphorylation of MET", "setting": "[6]", "result": "greater than 0.03 μM"}, {"measurement": "microvessel density (MVD) within the tumor area in the bone lesion", "setting": "[7]", "result": "significantly reduced"}]}
